Experiment: Clearance of PBD drug-linker from conjugation reaction mixture by tangential flow filtration (constant volume diafiltration)
Details: Example 8; without cyclodextrin; Tris, NaCl and 50% propylene glycol; clearance stalling after four diavolumes
Protocol: The diafiltration (DF) process used an 88 cm^2 Ultracel Pellicon 3 cassette from Millipore with a 30 kD molecular weight pore size. The batch volume for the DF was 250 mL, the feed flow rate was 40 ml/min throughout the process, and the retentate valve was adjusted to maintain a trans-membrane pressure of ˜20 psi. The diafiltration buffer addition rate to maintain constant batch volume started at 9 mL/min, but was maintained at 13-14 ml/min through most of the process. Samples were removed after the completion of each diavolume. The concentration of hpb-CD was measured in each sample using an RP HPLC assay with evaporative light scattering detection.
This mixture was brought to 10 w/v % hpb-CD by addition of 25% volume of a 50 w/v % solution of hpb-CD in 50 mM Tris/5 mM EDTA, pH 8.0. […] The concentration of quenched drug-linker was determined in each sample. […] C and C0 are concentrations of the analyte measured, N is the number of diavolumes, and S is the sieving factor, defined as the analyte concentration on the permeate side of the membrane divided by the analyte concentration on the retentate side of the membrane. […]
The TFF process was performed on quenched conjugation reaction mixture using a 30 kD MW cutoff 0.1 m^2 Ultracel Pellicon 3 membrane (Millipore). […] The concentration of quenched PBD drug-linker was determined in each sample. […]

## COc1ccc(C2=CN3C(=O)c4cc(OC)c(OCCCOc5cc6c(cc5OC)C(=O)N5C=C(c7ccc(NC(=O)[C@H](C)NC(=O)[C@@H](NC(=O)CCCCCN8C(=O)CC(SCC(NC(C)=O)C(=O)O)C8=O)C(C)C)cc7)C[C@H]5C=N6)cc4N=C[C@@H]3C2)cc1 (stereo partly shown) [compound 4]
  benzodiazepine drug-related impurity remaining in the mixture: 1.1 µM
